Reference: patent publication US4434101A, “Inhibitors of SRS-synthesis” (Hoffmann-La Roche Inc., priority 1981, dated 1984)

Tested on: SRS-A synthesis in rat peritoneal cells
Test: Inhibition of the In Vitro Synthesis of SRS-A in Rat Peritoneal Cells
Type: cell-based, rat (male Sprague-Dawley)
Settings: for inhibition at 10 µM: mean percent inhibition of ionophore A23187-induced SRS-A synthesis, 10 min preincubation at 37° C., p<0.001, SRS-A quantitated by guinea pig ileum bioassay, read-out: % Inhibition at 10μ M; for IC50: from plot of mean percent inhibition versus drug concentration, ionophore A23187-induced SRS-A synthesis
Source text: Inhibition of the In Vitro Synthesis of SRS-A in Rat Peritoneal Cells
To study the effect of drugs on SRS-A synthesis in rat peritoneal cells, these cells (including mast cells, monocytes, eosinophils and neutrophils)were isolated from male Sprague-Dawley rats (Charles River Laboratories) weighing 180-220 g by the lavage procedure described by Herzig, D. G. and Dusner, E. J. Journal of Pharmacology and Experimental Therapeutics, 194, 457-460 (1975) with the exception that Hanks balanced salt solution used in these experiments was adjusted to pH 6.9 with 5% (V/V) of 0.1 M aqueous phosphate buffer and contained 50 mg/ml sodium heparin. After removal from the peritoneal cavity of rats, the cells were subsequently isolated by centrifugation at 400×gravity for 10 minutes at 4° C. and resuspended to a concentration of about 2,000,000 cells per ml in Hanks buffer.
Samples for evaluation were prepared by adding various concentrations of test drugs to 2 ml aliquots of the resuspended cells in Hanks buffer. The 2 ml samples used for control contained 2 ml aliquots of resuspended cells in Hanks buffer without drugs. All of the above samples (2 ml final volume) were preincubated at 37° C. for 10 minutes in the presence of varying concentrations of test drug prior to challenge with […] ionophore A23187. This ionophore is disclosed in Burka and Flower, Br. J. Pharmacology 65: 35-41 (1979). Antibiotic A23187 was used as a probe for the study of calcium and function in biological systems. After ionophore challenge, SRS-A was synthesized in the samples by the cells for 10 minutes (at 37° C.) after which this synthesis was terminated by placing the samples in a boiling water bath for 10 minutes followed by centrifugation at 2,000×g (10 minutes) at 4° C. to remove coagulated protein and cellular debris. The SRS-A present in the resulting supernatants was quantitated by a bioassay using a guinea pig ileum as described in Orange, and Austen, Adv. Immunol, 10: 105-144 (1969). For this bioassay, a 1.5 cm segment of ileum was removed from animals weighing 300 to 400 g and resuspended in an organ bath containing 10 ml of Tyrodes solution with 10^-6 M atropine sulfate and 10^-6 M pyrilamine maleate. The bath was maintained at 37° C. and aereated with a mixture of 95% O2 and 5% CO2. The concentration of SRS-A in the experimental samples was determined by a comparison of isotonic contraction responses elicited by the samples with those obtained with varying amounts of an SRS-A standard solution prepared from chopped guinea pig lung as disclosed in Hitchcock, M. J. Pharmacol. Exp. Ther. 207: 630-640 (1978) and quantitated by the procedures of Orange, R. R. and Austen, K. F. Adv. Immunol. 10: 105-144 (1969) against histamine (1 unit of SRS-A being that amount which gives a contractie response similar to that of […] of histamine). In the absence of drug, the ionophore A23187-induced SRS-A synthesis varied between 40 to 50 units of SRS-A per 10^6 cells. In the presence of increasing concentrations of test drug, there was a concentration-related decrease in SRS-A synthesis.
The mean percent inhibition [formula] at each concentration of the various test drugs was calculated. The concentration of test drug which inhibits the synthesis of SRS-A by 50% (IC50) was determined for each test drug from a plot of the mean percent inhibition versus drug concentration. The difference of units of SRS-A in the test sample used in the fraction given above was obtained by subtracting the units of SRS-A in the control from the actual measurement of the units of SRS-A in the sample.

Row | Compound | inhibition at 10 µM | IC50
1 | CCCCCCCC/C=C\C/C=C\C(C)(C)/C=C\CCCC(=O)O [(all Z)-7,7-dimethyl-5,8,11-eicosatrienoic acid] | 100% | < 10 µM
2 | CCCCCCCCCCC/C=C\C(C)(C)/C=C\CCCC(=O)O [(Z,Z)-7,7-dimethyl-5,8-eicosadienoic acid] | 100% | < 10 µM
3 | CCCCC/C=C\C/C=C\C/C=C\C(C)(C)/C=C\CCCC(=O)O [(all-Z)-7,7-dimethyleicosa-5,8,11,14-tetraenoic acid] | 100% | 1 to 3 µM
